Test results taken from paper PMC6332026, “Synthesis and Pharmacochemistry of New Pleiotropic Pyrrolyl Derivatives” (Molecules, 2015).

Assays:
interleukin-6 (IL-6) = target: T1, interleukin-6 (IL-6) (Mus musculus, UniProt P08505); assay: Inhibition of interleukin-6 (immunometric double antibody sandwich EIA); format: biochemical; conditions: compound 10 μM
T1 construct: purchased Cayman Item No. 583371
T1 sequence (P08505 25-211): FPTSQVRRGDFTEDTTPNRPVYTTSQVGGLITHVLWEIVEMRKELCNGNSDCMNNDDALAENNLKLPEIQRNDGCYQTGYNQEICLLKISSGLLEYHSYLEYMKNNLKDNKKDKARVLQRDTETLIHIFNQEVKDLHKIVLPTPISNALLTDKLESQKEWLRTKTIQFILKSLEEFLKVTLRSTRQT
Procedure: The assay used for the inhibition of IL-6 is based on an immunometric double antibody method (sandwich technique). […] Both compounds gave satisfactory biological responses, both in high and in low concentrations of IL-6 (Table 8).
The method was based on an immunometric double antibody sandwich technique. Each well of the microwell plate was coated with a specific for mouse IL-6 rat monoclonal antibody. Tested compounds at 10 μΜ and standards were incubated in the wells, and after rinsing, a second monoclonal antibody was added, which was conjugated with biotin and detected the captured IL-6. The recognition of double antibody sandwiches was done with HRP-conjugated streptavidin. The concentration of IL-6 was determined by measuring the enzymatic activity of HRP using the chromogenic substrate TMB (3,3′,5,5′-tetramethylbenzidine). The absorbance of the reaction product was measured at 450 nm, and the intensity of the color was directly proportional to the amount of bound HRP-streptavidin conjugate, which was proportional to the concentration of IL-6.

COX-1 = COX-1 (Homo sapiens, UniProt P23219); assay: Inhibition of COX-1 (preliminary results); format: biochemical
Text: More experiments are in progress to delineate accurately the inhibition profile.

Chain of COX-1 (P23219 24-599): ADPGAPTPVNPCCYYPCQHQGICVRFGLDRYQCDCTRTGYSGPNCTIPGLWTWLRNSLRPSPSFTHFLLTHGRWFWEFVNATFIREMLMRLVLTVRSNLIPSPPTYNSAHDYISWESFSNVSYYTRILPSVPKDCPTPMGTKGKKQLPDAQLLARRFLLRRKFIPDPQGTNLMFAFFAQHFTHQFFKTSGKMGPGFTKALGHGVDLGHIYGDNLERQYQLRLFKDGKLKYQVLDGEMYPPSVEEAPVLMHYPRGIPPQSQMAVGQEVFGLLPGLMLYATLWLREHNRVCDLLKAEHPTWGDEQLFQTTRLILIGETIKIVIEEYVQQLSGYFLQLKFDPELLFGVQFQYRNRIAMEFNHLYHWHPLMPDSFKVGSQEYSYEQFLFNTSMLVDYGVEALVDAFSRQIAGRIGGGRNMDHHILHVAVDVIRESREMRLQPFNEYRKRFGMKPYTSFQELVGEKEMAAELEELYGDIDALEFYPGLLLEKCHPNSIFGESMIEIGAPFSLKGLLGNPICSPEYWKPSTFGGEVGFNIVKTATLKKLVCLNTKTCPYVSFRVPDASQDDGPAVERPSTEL

SMILES | inhibition at 10 µM (interleukin-6 (IL-6); IL-6 375.0 pg/mL) | inhibition at 10 µM (interleukin-6 (IL-6); IL-6 750.0 pg/mL) | inhibition at 10 µM (interleukin-6 (IL-6); IL-6 1500 pg/mL) | inhibition at 100 µM (COX-1) | inhibition at 10 µM (interleukin-6 (IL-6); IL-6 187.5 pg/mL)
O=C(c1ccc(Cl)cc1)c1c[nH]cc1-c1cccc2ccccc12 [Compound 2v, (4-Chlorophenyl)[4-(naphth-1-yl)-1H-pyrrol-3-yl]methanone] | 99% | 99% | 100% | 75% | 
O=C(c1cccs1)c1c[nH]cc1-c1ccc(OCc2ccc(Br)cc2)cc1 [Compound 2iii, (4-{4-[(4-Bromobenzyl)oxy]phenyl}-1H-pyrrol-3-yl)(thien-2-yl)methanone] |  |  |  | 75% | 
O=C(c1cccs1)c1c[nH]cc1-c1cccc(Oc2ccccc2)c1 [Compound 2i, [4-(3-Phenoxyphenyl)-1H-pyrrol-3-yl](thien-2-yl)methanone] | 99% | 98% | 99% |  | 99%
